Measured values reported in patent publication US20260174859A1, “ISOINDOLINONE DERIVATIVE HAVING ARYLCYCLOALKYLAMIDE STRUCTURE, AND USE THEREOF” (ONCORD BIO INC, priority 2022, published 2026).

What was measured:
[1] = tested on: NCI-H1155 (lung cancer cells); test: CytoX cell viability assay in NCI-H1155 lung cancer cells; settings: Homo sapiens, NCI-H1155, 72 h; for viability at 0.01 µM: read-out: NCI-H1155 (% viability) at 10 nM; for viability at 0.5 µM: read-out: NCI-H1155 (% viability) at 500 nM
Method: (§1) The viability of NCI-H1155 (lung cancer cells) was measured using the CytoX cell viability assay kit (LPS Solution, #CYT3000). […] CytoX solution was then added to the cells and incubated for 1 hour.

[2] = tested on: NCI-H1155 (lung cancer cells)
Method: as §1

KG-1 cells = test: Cytotoxicity assay (WST-1) in KG-1 cancer cells; type: cell-based; settings: Homo sapiens, 72 hours
Method: To evaluate the effects of the compounds of the present disclosure on cancer cells, a cytotoxicity assay was conducted as follows.
Cancer cells (KG-1) were seeded at a density of 10,000 cells per well in 96-well plates. The compound of the present disclosure and control compounds (Comparative Compounds 1, 2, and 3) were treated at predetermined concentrations. After 72 hours, the cells were treated with WST-1 reagent for 1 hour. Then, absorbance was read at 450 nm using a SpectraMax spectrophotometer to determine cell viability.

SMILES | viability at 0.01 µM [1] | viability at 0.5 µM [1] | NCI-H1155 (% viability) at 10 nM ([2]; 0.01 µM) | NCI-H1155 (% viability) at 500 nM ([2]; 0.5 µM) | IC50 (KG-1 cells)
O=C1CCC(N2Cc3cc(CNC(=O)[C@@H]4C[C@H]4c4ccc(Cl)cc4)ccc3C2=O)C(=O)N1 (mixture of isomers) [Cpd. 5, (1R,2R)-2-(4-chlorophenyl)-N-((2-(2,6-dioxopiperidin-3-yl)-1-oxoisoindolin-5-yl)methyl)cyclopropane-1-carboxamide racemic mixture] | 2% | 4% |  |  | 
O=C1CCC(N2Cc3cc(CNC(=O)C(F)(F)c4ccc(Cl)cc4)ccc3C2=O)C(=O)N1 (stereo not drawn) [CC-90009 (Eragidomide), Eragidomide] |  |  | 85.0% | 23.25% | 
O=C1CCC(N2Cc3cc(CNC(=O)c4cc5ccccc5cn4)ccc3C2=O)C(=O)N1 (stereo not drawn) [Comparative Cpd. 1, N-((2-(2,6-dioxopiperidin-3-yl)-1-oxoisoindolin-5-yl)methyl) isoquinoline-3-carboxamide] |  |  |  |  | > 10 µM
O=C1CCC(N2Cc3cc(CNC(=O)c4cnc5ccccc5n4)ccc3C2=O)C(=O)N1 (stereo not drawn) [Comparative Cpd. 2, N-((2-(2,6-dioxopiperidin-3-yl)-1-oxoisoindolin-5-yl)methyl)quinoxaline-2-carboxamide] |  |  |  |  | > 10 µM
O=C1CCC(N2Cc3cc(CNC(=O)c4ccc5cc(Cl)ccc5n4)ccc3C2=O)C(=O)N1 (stereo not drawn) [Comparative Cpd. 3, 6-chloro-N-((2-(2,6-dioxopiperidin-3-yl)-1-oxoisoindolin-5-yl)methyl) quinoline-2-carboxamide] |  |  |  |  | 4.1 µM
O=C1CCC(N2Cc3cc(CNC(=O)[C@@H]4C[C@H]4c4ccccc4)ccc3C2=O)C(=O)N1 (stereo partly drawn) [Cpd. 1, (1R,2R)—N-((2-(2,6-dioxopiperidin-3-yl)-1-oxoisoindolin-5-yl)methyl)-2-phenylcyclopropane-1-carboxamide] |  |  |  |  | 0.002 µM
O=C1CCC(N2Cc3cc(CNC(=O)[C@@H]4C[C@H]4c4ccc(Cl)cc4)ccc3C2=O)C(=O)N1 (stereo partly drawn) [Cpd. 3, (1R,2R)-2-(4-chlorophenyl)-N-((2-(2,6-dioxopiperidin-3-yl)-1-oxoisoindolin-5-yl)methyl)cyclopropane-1-carboxamide] | 4% | 4% |  |  | 
O=C1CCC(N2Cc3cc(CNC(=O)[C@@H]4C[C@@H]4c4ccccc4)ccc3C2=O)C(=O)N1 (stereo partly drawn) [Cpd. 4, (1R,2S)—N-((2-(2,6-dioxopiperidin-3-yl)-1-oxoisoindolin-5-yl)methyl)-2-phenylcyclopropane-1-carboxamide] | 94% | 95% |  |  | 
O=C1CCC(N2Cc3cc(CNC(=O)[C@@H]4C[C@H]4c4cccc(Cl)c4)ccc3C2=O)C(=O)N1 (stereo partly drawn) [Cpd. 6, (1R,2R)-2-(3-chlorophenyl)-N-((2-(2,6-dioxopiperidin-3-yl)-1-oxoisoindolin-5-yl)methyl)cyclopropane-1-carboxamide] | 5% | 4% |  |  | 
O=C1CCC(N2Cc3cc(CNC(=O)[C@H]4C[C@@H]4c4ccccc4)ccc3C2=O)C(=O)N1 (stereo partly drawn) [Cpd. 7, (1S,2S)—N-((2-(2,6-dioxopiperidin-3-yl)-1-oxoisoindolin-5-yl)methyl)-2-phenylcyclopropane-1-carboxamide] | 3% | 4% |  |  | 
O=C1CCC(N2Cc3cc(CNC(=O)[C@@H]4C[C@H]4c4ccc(F)cc4)ccc3C2=O)C(=O)N1 (stereo partly drawn) [Cpd. 8, (1R,2R)—N-((2-(2,6-dioxopiperidin-3-yl)-1-oxoisoindolin-5-yl)methyl)-2-(4-fluorophenyl)cyclopropane-1-carboxamide] | 48% | 26% |  |  | 
O=C1CCC(N2Cc3cc(CNC(=O)[C@@H]4C[C@H]4c4cccc(F)c4)ccc3C2=O)C(=O)N1 (stereo partly drawn) [Cpd. 9, (1R,2R)—N-((2-(2,6-dioxopiperidin-3-yl)-1-oxoisoindolin-5-yl)methyl)-2-(3-fluorophenyl)cyclopropane-1-carboxamide] | 52% | 25% |  |  | 
O=C1CCC(N2Cc3cc(CNC(=O)[C@H]4C[C@@H]4c4cccc(Cl)c4)ccc3C2=O)C(=O)N1 (stereo partly drawn) [Cpd. 10, (1S,2S)-2-(3-chlorophenyl)-N-((2-(2,6-dioxopiperidin-3-yl)-1-oxoisoindolin-5-yl)methyl)cyclopropane-1-carboxamide] | 39% | 25% |  |  | 
O=C1CCC(N2Cc3cc(CNC(=O)C4CC4c4ccc(C(F)(F)F)cc4)ccc3C2=O)C(=O)N1 (stereo not drawn) [Cpd. 11, N-((2-(2,6-dioxopiperidin-3-yl)-1-oxoisoindolin-5-yl)methyl)-2-(4-(trifluoromethyl)phenyl)cyclopropane-1-carboxamide] | 79% | 34% |  |  | 
Cc1ccc([C@H]2C[C@@H]2C(=O)NCc2ccc3c(c2)CN(C2CCC(=O)NC2=O)C3=O)cc1 (stereo partly drawn) [Cpd. 12, (1S,2S)—N-((2-(2,6-dioxopiperidin-3-yl)-1-oxoisoindolin-5-yl)methyl)-2-(p-tolyl)cyclopropane-1-carboxamide] | 44% | 27% |  |  | 
O=C1CCC(N2Cc3cc(CNC(=O)C4CC4c4ccc(Cl)cc4Cl)ccc3C2=O)C(=O)N1 (stereo not drawn) [Cpd. 13, 2-(2,4-dichlorophenyl)-N-((2-(2,6-dioxopiperidin-3-yl)-1-oxoisoindolin-5-yl)methyl)cyclopropane-1-carboxamide] | 27% | 24% |  |  | 
O=C1CCC(N2Cc3cc(CNC(=O)C4CCC4c4ccccc4)ccc3C2=O)C(=O)N1 (stereo not drawn) [Cpd. 14, N-((2-(2,6-dioxopiperidin-3-yl)-1-oxoisoindolin-5-yl)methyl)-2-phenylcyclobutane-1-carboxamide] | 96% | 57% |  |  | 
